Results taken from US20090221715A1, “NOVEL POLYMORPH OF ATOVAQUONE” (priority 2008, published 2009).

assay: Bulk density and tapped density comparison of atovaquone crystalline forms; assay type: physicochemical; conditions: powder of the crystalline form

Bulk density [g/mL]	Tapped density [g/mL]	Compound
0.2353	0.3801	O=C1C(O)=C([C@H]2CC[C@H](c3ccc(Cl)cc3)CC2)C(=O)c2ccccc21 [Form IPCA-ATO (ATO-8099), trans-2-[4-(4-chlorophenyl)cyclohexyl]-3-hydroxy-1,4-naphthoquinone]
0.4802	0.6402	O=C1C(O)=C([C@H]2CC[C@H](c3ccc(Cl)cc3)CC2)C(=O)c2ccccc21 [Form I (ATO-8094P), trans-2-[4-(4-chlorophenyl)cyclohexyl]-3-hydroxy-1,4-naphthoquinone]
0.2975	0.4010	O=C1C(O)=C([C@H]2CC[C@H](c3ccc(Cl)cc3)CC2)C(=O)c2ccccc21 [Form III (ATO-8110), trans-2-[4-(4-chlorophenyl)cyclohexyl]-3-hydroxy-1,4-naphthoquinone]
